By IC50 is commonly meant the point on the concentration scale where inhibition reaches its midpoint.

The assay has as its target Replicase polyprotein 1ab (Severe acute respiratory syndrome coronavirus 2, UniProt P0DTD1). Briefly: Inhibition of full-length recombinant SARS-CoV-2 3CL protease expressed in Escherichia coli BL21 (DE3) using FAM- KTSAVLQSGFRKMEK-TAMRA as substrate pre-incubated for 1 hr with compound followed by substrate addition measured after 30 mins by FRET analysis.
With `CC(C)(C)[C@H](NC(=O)C(F)(F)F)C(=O)N1C[C@H]2[C@@H]([C@H]1C(=O)NN(C[C@@H]1CCNC1=O)C(=O)CCl)C2(C)C`, the IC50 is 6 nM.
In the case of `CC[C@H](C)[C@H](NC(=O)C(F)(F)C(F)(F)F)C(=O)N1C[C@@H]2CCC[C@@H]2[C@H]1C(=O)NN(C[C@@H]1CCNC1=O)C(=O)[C@H](F)Cl`, the IC50 is 6 nM.
The figure for `CCC(CC)[C@H](NC(=O)C(F)(F)F)C(=O)N1C[C@H]2[C@@H]([C@H]1C(=O)NN(C[C@@H]1CCNC1=O)C(=O)[C@H](F)Cl)C2(C)C` is 7 nM.
